Experimental data as given in patent US6737383B1, “Herbicidal oxadiazolidines” (priority 1999, dated 2004).

Key:
morningglory = experiment: Test B pre/postemergence morningglory; type: in vivo, Ipomoea hederacea
In short: (§1)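 Herbicidal effect was estimated by eye on a ten-point control scale after plants spent twelve to sixteen days in a greenhouse following soil or foliar treatment. Foliar sprays targeted plants at one to four leaves; all doses were formulated in a non-phytotoxic solvent with surfactant.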

blackgrass = experiment: Test B pre/postemergence blackgrass; type: in vivo, Alopecurus myosuroides
In short: as §1

velvetleaf = experiment: Test B pre/postemergence velvetleaf; type: in vivo, Abutilon theophrasti
In short: as §1

rape = experiment: Test B pre/postemergence rape; type: in vivo, Brassica napus
In short: as §1

sugar beet = experiment: Test B pre/postemergence sugar beet; type: in vivo, Beta vulgaris
In short: as §1

bamyardgrass = experiment: Test B flood test barnyardgrass; type: in vivo, Echinochloa crus-galli
In short: (§2)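 Read-out is a visual response score from 0 (no effect) to 10 (complete control), assigned by comparison with untreated controls. Treatment was applied at the 2-leaf stage, and plants stayed in the greenhouse for twelve to sixteen days before scoring.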

duck salad = experiment: Test B flood test duck salad; type: in vivo, Heteranthera limosa
In short: as §2

surinam grass = experiment: Test B pre/postemergence surinam grass; type: in vivo, Brachiaria decumbens
In short: as §1

wild oat = experiment: Test B pre/postemergence wild oat; type: in vivo, Avena fatua
In short: as §1

pigweed = experiment: Test B pre/postemergence pigweed; type: in vivo, Amaranthus retroflexus
In short: as §1

corn = experiment: Test B pre/postemergence corn; type: in vivo, Zea mays
In short: as §1

smallflower flatsedge = experiment: Test B flood test smallflower flatsedge; type: in vivo, Cyperus difformis
In short: as §2

rice = experiment: Test B flood test rice; type: in vivo, Oryza sativa
In short: as §2

giant foxtail = experiment: Test B pre/postemergence giant foxtail; type: in vivo, Setaria faberii
In short: as §1

wheat = experiment: Test B pre/postemergence wheat; type: in vivo, Triticum aestivum
In short: as §1

cocklebur = experiment: Test B pre/postemergence cocklebur; type: in vivo, Xanthium strumarium
In short: as §1

bedstraw = experiment: Test B pre/postemergence bedstraw; type: in vivo, Galium aparine; settings: Preemergence
In short: as §1

crabgrass = experiment: Test B pre/postemergence crabgrass; type: in vivo, Digitaria sanguinalis
In short: as §1

soybean = experiment: Test B pre/postemergence soybean; type: in vivo, Glycine max
In short: as §1

purple nutsedge = experiment: Test B pre/postemergence purple nutsedge; type: in vivo, Cyperus rotundus
In short: as §1

[1] = Postemergence, Rate 62 g/ha, scale of 0 to 10, 0 is no effect, 10 is complete control
[2] = Postemergence, Rate 125 g/ha, scale of 0 to 10 where 0 is no effect and 10 is complete control
[3] = Postemergence, Rate 250 g/ha, scale of 0 to 10, 0 is no effect, 10 is complete control
[4] = Postemergence, Rate 500 g/ha, scale of 0 to 10 where 0 is no effect and 10 is complete control
[5] = Preemergence, Rate 62 g/ha, scale 0 to 10 (0 no effect, 10 complete control)
[6] = Preemergence, Rate 125 g/ha, scale of 0 to 10 where 0 is no effect and 10 is complete control
[7] = Preemergence, Rate 500 g/ha, scale of 0 to 10 where 0 is no effect and 10 is complete control
[8] = Rate 62 g/ha, flood test species, Pre-emergence, visual evaluation after twelve to sixteen days
[9] = Rate 125 g/ha, under heading Pre-emergence, flood test species, visual evaluation after twelve to sixteen days
[10] = Rate 250 g/ha, Pre-emergence (flood test species), scale 0 to 10, 0 is no effect, 10 is complete control
[11] = Rate 500 g/ha, Pre-emergence section of Table B, 0 to 10 scale (0 no effect, 10 complete control)

## CC(=O)OCC(CCl)n1c(=O)on(C(=O)N(c2ccc(F)cc2)C(C)C)c1=O (centres unmarked) [Compound 596]
morningglory; [1]
  Morningglory plant response rating: 0
morningglory; [2]
  Plant response rating, Morningglory: 0
morningglory; [3]
  Morningglory plant response rating: 0
morningglory; [4]
  Plant response rating, Morningglory: 2
morningglory; [5]
  Morningglory plant response rating: 0
morningglory; [6]
  Morningglory plant response rating: 0
morningglory; [7]
  Plant response rating, Morningglory: 0
blackgrass; [1]
  Blackgrass plant response rating: 0
blackgrass; [2]
  Plant response rating, Blackgrass: 0
blackgrass; [3]
  Blackgrass plant response rating: 0
blackgrass; [4]
  Plant response rating, Blackgrass: 0
blackgrass; [5]
  Blackgrass plant response rating: 0
blackgrass; [6]
  Blackgrass plant response rating: 0
blackgrass; Preemergence, Rate 250 g/ha
  Blackgrass plant response rating (0 to 10 scale): 0
blackgrass; [7]
  Blackgrass plant response rating: 0
velvetleaf; [2]
  Plant response rating, Velvetleaf: 0
velvetleaf; [3]
  Velvetleaf plant response rating: 0
velvetleaf; [4]
  Plant response rating, Velvetleaf: 0
velvetleaf; [5]
  Velvetleaf plant response rating: 0
velvetleaf; [6]
  Velvetleaf plant response rating: 0
velvetleaf; [7]
  Plant response rating, Velvetleaf: 0
rape; [1]
  Rape plant response rating: 0
rape; [2]
  Plant response rating, Rape: 0
rape; [3]
  Rape plant response rating: 0
rape; [4]
  Plant response rating, Rape: 0
rape; [5]
  Rape plant response rating: 0
rape; [6]
  Rape plant response rating: 0
rape; [7]
  Plant response rating, Rape: 0
Sugar beet; [2]
  Plant response rating, Sugarbeets: 0
Sugar beet; [3]
  Sugarbeets plant response rating: 0
Sugar beet; [4]
  Plant response rating, Sugarbeets: 0
Sugar beet; [5]
  Sugarbeets plant response rating: 0
Sugar beet; [6]
  Sugarbeets plant response rating: 0
Sugar beet; [7]
  Plant response rating, Sugarbeets: 0
bamyardgrass; [8]
  Plant response rating, Barnyardgrass (0 to 10 scale, 0 is no effect, 10 is complete control): 0
bamyardgrass; [9]
  Barnyardgrass plant response rating (0 to 10 scale, 0 is no effect, 10 is complete control): 0
bamyardgrass; [10]
  Barnyardgrass plant response rating: 0
bamyardgrass; [11]
  Barnyardgrass plant response rating: 0
Duck salad; [8]
  Plant response rating, Ducksalad (0 to 10 scale, 0 is no effect, 10 is complete control): 0
Duck salad; [9]
  Ducksalad plant response rating (0 to 10 scale, 0 is no effect, 10 is complete control): 0
Duck salad; [10]
  Ducksalad plant response rating: 0
Duck salad; [11]
  Ducksalad plant response rating: 0
Surinam grass; [1]
  B. signalgrass plant response rating: 0
Surinam grass; [2]
  Plant response rating, B. signalgrass: 0
Surinam grass; [3]
  B. signalgrass plant response rating: 0
Surinam grass; [4]
  Plant response rating, B. signalgrass: 0
Surinam grass; [5]
  B. signalgrass plant response rating: 0
Surinam grass; [6]
  B. signalgrass plant response rating: 0
Surinam grass; Preemergence, Rate 250 g/ha
  B. signalgrass plant response rating (0 to 10 scale, 0 is no effect, 10 is complete control): 0
Surinam grass; [7]
  B. signalgrass plant response rating: 0
Wild oat; [2]
  Plant response rating, Wild oats: 0
Wild oat; [3]
  Wild oats plant response rating: 0
Wild oat; [4]
  Plant response rating, Wild oats: 0
Wild oat; [5]
  Wild oats plant response rating: 0
Wild oat; [6]
  Wild oats plant response rating: 0
Wild oat; [7]
  Plant response rating, Wild oats: 0
pigweed; [2]
  Plant response rating, Redroot pigweed: 0
pigweed; [3]
  Redroot pigweed plant response rating: 0
pigweed; [4]
  Plant response rating, Redroot pigweed: 0
pigweed; [5]
  Redroot pigweed plant response rating: 0
pigweed; [6]
  Redroot pigweed plant response rating: 0
pigweed; [7]
  Plant response rating, Redroot pigweed: 0
corn; [1]
  Corn plant response rating: 0
corn; [2]
  Plant response rating, Corn: 0
corn; [3]
  Corn plant response rating: 0
corn; [4]
  Plant response rating, Corn: 0
corn; [5]
  Corn plant response rating: 0
corn; [6]
  Corn plant response rating: 0
corn; Preemergence, Rate 250 g/ha
  Corn plant response rating (0 to 10 scale): 0
corn; [7]
  Plant response rating, Corn: 0
Smallflower flatsedge; [8]
  Plant response rating, S. Flatsedge (0 to 10 scale, 0 is no effect, 10 is complete control): 0
Smallflower flatsedge; [9]
  S. Flatsedge plant response rating (0 to 10 scale, 0 is no effect, 10 is complete control): 0
Smallflower flatsedge; [10]
  S. Flatsedge plant response rating: 0
Smallflower flatsedge; [11]
  S. Flatsedge plant response rating: 0
rice; [8]
  Plant response rating, Rice (0 to 10 scale, 0 is no effect, 10 is complete control): 0
rice; [9]
  Rice plant response rating (0 to 10 scale, 0 is no effect, 10 is complete control): 0
rice; [10]
  Rice plant response rating: 0
rice; [11]
  Rice plant response rating: 0
Giant foxtail; [1]
  Giant foxtail plant response rating: 0
Giant foxtail; [2]
  Plant response rating, Giant foxtail: 0
Giant foxtail; [3]
  Giant foxtail plant response rating: 0
Giant foxtail; [4]
  Plant response rating, Giant foxtail: 3
Giant foxtail; [5]
  Giant foxtail plant response rating: 0
Giant foxtail; [6]
  Giant foxtail plant response rating: 0
Giant foxtail; [7]
  Plant response rating, Giant foxtail: 4
wheat; [2]
  Plant response rating, Wheat: 0
wheat; [3]
  Wheat plant response rating: 0
wheat; [4]
  Plant response rating, Wheat: 0
wheat; [5]
  Wheat plant response rating: 0
wheat; [6]
  Wheat plant response rating: 0
wheat; [7]
  Plant response rating, Wheat: 0
cocklebur; [1]
  Cocklebur plant response rating: 0
cocklebur; [2]
  Plant response rating, Cocklebur: 0
cocklebur; [3]
  Cocklebur plant response rating: 0
cocklebur; [4]
  Plant response rating, Cocklebur: 0
cocklebur; [5]
  Cocklebur plant response rating: 0
cocklebur; [6]
  Cocklebur plant response rating: 0
cocklebur; Preemergence, Rate 250 g/ha
  Cocklebur plant response rating (0 to 10 scale): 0
cocklebur; [7]
  Plant response rating, Cocklebur: 0
bedstraw; Rate 62 g/ha, scale 0 to 10 (0 no effect, 10 complete control)
  Bedstraw plant response rating: 0
bedstraw; Rate 125 g/ha, scale of 0 to 10 where 0 is no effect and 10 is complete control
  Bedstraw plant response rating: 0
bedstraw; Rate 250 g/ha
  Bedstraw plant response rating (0 to 10 scale): 0
bedstraw; Rate 500 g/ha, scale of 0 to 10 where 0 is no effect and 10 is complete control
  Bedstraw plant response rating: 0
crabgrass; [1]
  Crabgrass plant response rating: 0
crabgrass; [2]
  Plant response rating, Crabgrass: 0
crabgrass; [3]
  Crabgrass plant response rating: 0
crabgrass; [4]
  Plant response rating, Crabgrass: 2
crabgrass; [5]
  Crabgrass plant response rating: 0
crabgrass; [6]
  Crabgrass plant response rating: 0
crabgrass; [7]
  Plant response rating, Crabgrass: 6
soybean; [2]
  Plant response rating, Soybean: 2
soybean; [3]
  Soybean plant response rating: 2
soybean; [4]
  Plant response rating, Soybean: 3
soybean; [5]
  Soybean plant response rating: 0
soybean; [6]
  Soybean plant response rating: 0
soybean; [7]
  Plant response rating, Soybean: 0
Purple nutsedge; [1]
  Nutsedge plant response rating: 0
Purple nutsedge; [2]
  Plant response rating, Nutsedge: 0
Purple nutsedge; [4]
  Plant response rating, Nutsedge: 0
Purple nutsedge; [5]
  Nutsedge plant response rating: 0
Purple nutsedge; [6]
  Nutsedge plant response rating: 0
Purple nutsedge; [7]
  Plant response rating, Nutsedge: 0
